Experiments:
[1] = tested on: Acinetobacter baumannii clinical strains; experiment: Information of drug resistance of 10 clinical strains; type: cell-based; set-up: key: S: Drug Susceptible; I: Drug Intermediate; R: Drug Resistant
[2] = Pharmacokinetics in plasma and bronchoalveolar lavage fluid of female CD-1 mice; type: in vivo; details: mouse, in vivo
Description: An appropriate amount of the test drug was accurately weighed and mixed with the appropriate volume of vehicle (5% DMSO+0.5% Tween 80 in normal saline) to obtain a clear solution for the test in Table 9. The formulation solution for injection was prepared to sterile filtration through a 0.22 μm filter prior to administration. The mice were dosed with the drug within 30 min after the formulated solution for injection was prepared. A 1.5 mL of the formulation solution for injection was transferred into a polypropylene microcentrifuge tube for dose verification by LC/UV or LC-MS/MS.
All blood samples were transferred to pre-frozen EDTA-K2 tubes and placed on wet ice until centrifugation. […]
Plasma: approximately 100 μL of blood sample was transferred into pre-cooled commercial EDTA-K2 tubes and placed on wet ice until centrifugation. After the blood samples were centrifuged at approximately 4° C. and 3, 200 g for 10 min, plasma was collected and transferred to pre-labeled 96-well plates or polypropylene tubes, flash frozen on dry ice, and stored at ≤−60° C. until the analysis by LC-MS/MS.
Serum: approximately 100 μL of blood sample was transferred into a tube without anticoagulant and placed on wet ice for approximately 30 min and centrifuged at 4° C. and 3,000 g for 10 min, and the serum was collected and transferred into pre-labeled PP tubes placed on wet ice. After the completion of all the collections, serum samples were stored at −60° C. until being sent to the animal experimental team to determine urea concentration.
Bronchoalveolar lavage fluid (BALF): pre-cooled tracheo-alveolar lavage fluid was injected into the trachea or predefined bronchi. After a full expansion of the lung tissue, the lavage fluid was slowly drawn out with a syringe 30 s later. The lung was lavaged three times. During the last lavage, the lung tissue was gently squeezed to restore the fluid. To prevent contamination of other lung tissues, the corresponding bronchi were ligated. Both lungs of the mice were perfused with 0.8 mL.
[…] Approximately 200 μL of the BALF samples were transferred into a polypropylene tube, rapidly frozen on dry ice, maintained at ≤−60° C., and sent to the animal experimental team to determine urea concentration. The remaining BALF samples (approximately 600 μL) were rapidly frozen on dry ice and maintained at ≤−60° C. until being submitted for drug concentration analysis by LC-MS/MS.

[3] = tested on: Acinetobacter baumannii strains; experiment: Minimum inhibitory concentration (CLSI M07), Example 2, 20 strains; type: cell-based
Description: (§1) The minimum inhibitory concentration (MIC) was determined in accordance with the requirements of the Clinical and Laboratory Standards Institute (CLSI) M07 (for aerobic bacteria).
3.1 The compounds were diluted with DMSO up to 100 times of the highest concentration tested.
The steps of manual dilution are as follows (example): firstly, the compound or antibiotic was diluted to 100 times of the maximum final concentration tested, then 60 μL of compound mother liquor was added to the first column of the 96-well plate, and 30 μL of DMSO was added to each well in the second to the 12th column; 30 μL of the liquid was transferred from the first column to the second column. After being pipetted up and down to even, 30 μL was transferred to the third column, and was diluted in sequence at a 2-fold gradient for a total of 10 times; then 30 μL was removed from each well in the 11th column, then a compound solution diluted at 2-fold gradient was obtained and 1 μL was transferred to a 96-well test plate.
Aerobic bacteria: the strains were inoculated on MHA one day in advance and incubated overnight at 37° C. On the day of the assay, 5-6 single colonies were picked and suspended evenly in saline, and the bacterial concentration was adjusted to the turbidity of 0.5 McFarland standard (concentration is about 1×10^8 CFU/mL). The bacterial suspension was diluted at 200-fold with the corresponding liquid culture medium (Table 1), i.e., the bacterial concentration was ~5×10^5 CFU/ml, and then 100 μL of the liquid was transferred to a 96-well round bottom plate (the 96-well plate with compound prepared in 4.2, Echo method) to obtain the test plate. If the compound was manually diluted, then 99 μL of the solution was transferred into a 96-well round bottom plate. The 96-well round bottom plate obtained above was placed into an incubator at 37° C. and 85% humidity to incubate for 20 h.

[4] = tested on: clinical strains of Acinetobacter baumannii; experiment: Minimum inhibitory concentration (CLSI M07), Example 1, clinical strains; type: cell-based; details: combination MIC = sum of the concentrations of the two compounds
Description: as §1
3.1 The compounds were diluted with water up to 100 times of the highest concentration tested.
The dilution steps are as follows: first dilute the compounds or antibiotics to 100 times of the highest final concentration tested, and then:
A 50 μL of sterile water and 50 μL of avibactam sodium mother liquid were added into the A row of the second 96-well plate, and 50 μL of water was added into each of the remaining wells. A 50 μL of liquid was pipetted from the A row and added into the B row; after being pipetted up and down to even, 50 μL of the solution was pipetted and added to the C row, and diluted in a 2-fold gradient in turn for a total of 6 times and then, 50 μL was removed from each well of the G row to obtain the compound solution diluted to a 2-fold gradient and then 4 μL was transferred to a 96-well test plate.
Aerobic bacteria: the strains were inoculated on MHA one day in advance and incubated overnight at 37° C. On the day of the assay, 5-6 single colonies were picked and suspended evenly in saline, and the bacterial concentration was adjusted to the turbidity of 0.5 McFarland standard (concentration is about 1×10^8 CFU/mL). The bacterial suspension was diluted 200 times with the corresponding liquid culture medium (Table 1), i.e., at a bacterial concentration of ~5×10^5 CFU/ml, then 192 μL was transferred to a 96-well round bottom plate to obtain the test plate. Then, the 96-well round bottom plate obtained above was placed into an incubator at 37° C. and 85% humidity to incubate for 20 h.

NCC[C@H](O)C(=O)N[C@@H]1C[C@H](N)[C@@H](O[C@H]2O[C@H](CN)[C@@H](O)[C@H](O)[C@H]2O)[C@H](O)[C@H]1O[C@H]1O[C@H](CO)[C@@H](O)[C@H](N)[C@H]1O [Amikacin]
Drug resistance ([1]; strain TNP041702): R | Drug resistance ([1]; strain TNP041703): R | Drug resistance ([1]; strain TNP041704): R | Drug resistance ([1]; strain TNP041705): R | Drug resistance ([1]; strain TNP041706): S | Drug resistance ([1]; strain TNP041707): R | Drug resistance ([1]; strain TNP041708): S | Drug resistance ([1]; strain TNP041709): R | Drug resistance ([1]; strain TNP041710): R | Drug resistance ([1]; strain TNP041711): R

NC(=O)[C@@H]1CC[C@@H]2CN1C(=O)N2OS(=O)(=O)[O-].[Na+] [Avibactam sodium, avibactam sodium]
AUC Ratio [2]: 0.0257 | Part of the dosing interval with free plasma concentration above the MIC of strain BAA-1795 [2]: more than 50% | Part of the dosing interval with plasma concentration above the MIC of strain BAA-1795 [2]: more than 50% | AUC0-last, BALF ([2]; iv, 150 mg/kg): 1319 ng·h/mL | AUC0-last, plasma ([2]; iv, 150 mg/kg): 51289 ng·h/mL | Cl ([2]; iv, 150 mg/kg): 48.7 mL/min/kg | MRT0-last, BALF ([2]; iv, 150 mg/kg): 103 min | MRT0-last, plasma ([2]; iv, 150 mg/kg): 26.3 min | T1/2, BALF ([2]; iv, 150 mg/kg): 45.7 min | T1/2, plasma ([2]; iv, 150 mg/kg): 73.8 min | MIC50 ([3]; Example 2, 20 strains): >128 µg/mL | MIC90 ([3]; Example 2, 20 strains): >128 µg/mL | MIC range ([3]; Example 2, 20 strains): >128 µg/mL | MIC ([3]; strain ARLG-1791): >128 µg/mL | MIC ([3]; strain ARLG-1809): >128 µg/mL | MIC ([3]; strain ARLG-1852): >128 µg/mL | MIC ([3]; strain ARLG-1853): >128 µg/mL | MIC ([3]; strain ARLG-1881): >128 µg/mL | MIC ([3]; strain ATCC 17978): >128 µg/mL | MIC ([3]; strain ATCC 19606): >128 µg/mL | MIC ([3]; strain ATCC-BAA-1605): >128 µg/mL | MIC ([3]; strain ATCC-BAA-1789): >128 µg/mL | MIC ([3]; strain ATCC-BAA-1790): >128 µg/mL | MIC ([3]; strain ATCC-BAA-1791): >128 µg/mL | MIC ([3]; strain ATCC-BAA-1792): >128 µg/mL | MIC ([3]; strain ATCC-BAA-1793): >128 µg/mL | MIC ([3]; strain ATCC-BAA-1794): >128 µg/mL | MIC ([3]; strain ATCC-BAA-1795): >128 µg/mL | MIC ([3]; strain ATCC-BAA-1796): >128 µg/mL | MIC ([3]; strain ATCC-BAA-1797): >128 µg/mL | MIC ([3]; strain ATCC-BAA-1798): >128 µg/mL | MIC ([3]; strain ATCC-BAA-1799): >128 µg/mL | MIC ([3]; strain ATCC-BAA-1800): >128 µg/mL | MIC of the strain BAA-1795 (component in the combination) ([3]; strain BAA-1795, sulbactam/avibactam 4:1, concentration of the named component): 2 µg/mL | MIC50 [4]: >32 µg/mL | MIC90 [4]: >32 µg/mL | MIC range [4]: >32 µg/mL

Cc1nnc(SCC2=C(C(=O)O)N3C(=O)[C@@H](NC(=O)Cn4cnnn4)[C@H]3SC2)s1 [Cefazolin]
Drug resistance ([1]; strain TNP041702): R | Drug resistance ([1]; strain TNP041703): R | Drug resistance ([1]; strain TNP041704): R | Drug resistance ([1]; strain TNP041705): R | Drug resistance ([1]; strain TNP041706): R | Drug resistance ([1]; strain TNP041707): R | Drug resistance ([1]; strain TNP041708): R | Drug resistance ([1]; strain TNP041709): R | Drug resistance ([1]; strain TNP041710): R | Drug resistance ([1]; strain TNP041711): R

CO/N=C(\C(=O)N[C@@H]1C(=O)N2C(C(=O)[O-])=C(C[N+]3(C)CCCC3)CS[C@H]12)c1csc(N)n1 [Cefepime]
Drug resistance ([1]; strain TNP041702): R | Drug resistance ([1]; strain TNP041703): R | Drug resistance ([1]; strain TNP041704): R | Drug resistance ([1]; strain TNP041705): R | Drug resistance ([1]; strain TNP041706): R | Drug resistance ([1]; strain TNP041707): R | Drug resistance ([1]; strain TNP041708): R | Drug resistance ([1]; strain TNP041709): R | Drug resistance ([1]; strain TNP041710): R | Drug resistance ([1]; strain TNP041711): R

CO/N=C(\C(=O)N[C@@H]1C(=O)N2C(C(=O)O)=C(COC(C)=O)CS[C@H]12)c1csc(N)n1 [Cefotaxime]
Drug resistance ([1]; strain TNP041702): R | Drug resistance ([1]; strain TNP041703): R | Drug resistance ([1]; strain TNP041704): R | Drug resistance ([1]; strain TNP041705): R | Drug resistance ([1]; strain TNP041706): R | Drug resistance ([1]; strain TNP041707): R | Drug resistance ([1]; strain TNP041708): R | Drug resistance ([1]; strain TNP041709): R | Drug resistance ([1]; strain TNP041710): R | Drug resistance ([1]; strain TNP041711): R
